Results published in article PMC8318231, “Rate-of-Kill (RoK) assays to triage large compound sets for Chagas disease drug discovery: Application to GSK Chagas Box” (PLoS Neglected Tropical Diseases, 2021).

What was measured:
[1] = system: T. cruzi intracellular amastigotes in H9c2 cells; assay: Rate-of-Kill (RoK) high-content imaging assay, amastigotes per cell (AM/CELL) and curve descriptors; assay type: cell-based, Trypanosoma cruzi; design: key to ME_24h / ME_48h / ME_72h: % reduction in parasite burden (cidal response); t50pct_MCC50 / t50pct_Cmax: unit not given here; conditions: for ME_24h: 24h; for ME_48h: 48h; for ME_72h: 72h; for AM/CELL NORM: sheet figure 4 A; for tlag_Cmax / t50pct_Cmax / t50%_Cmax: at Cmax; for ME_24h (%): maximum effect at 24 h; for ME_24h (%) / ME_48h (%) / ME_72h (%): RoK assay; for ME_48h (%): maximum effect at 48 h; for ME_72h (%): maximum effect at 72 h; for ME 24h (maximum effect at 24 hours, intracellular amastigotes): maximum percentage of parasite burden reduction reached by any concentration
Procedure, shortened: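 Readouts at each time point are amastigotes per cell and host nuclei count (cytotoxicity), from DRAQ5 high-content imaging. Infection: trypomastigotes on H9c2 at MOI 8 for 18 h. Dosing was 5 μM single point or 11 points, 1/3 steps from 50 μM. Effect scaled between 4 h infected and uninfected controls.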

[2] = system: T. cruzi Tulahuen trypomastigotes; assay: T. cruzi trypomastigote assay (Cell Titer-Glo viability, ATP luminescence); assay type: cell-based, Trypanosoma cruzi; conditions: for Trypomastigotes pIC50 48 hours: 48 hours incubation; for Trypomastigotes pIC50 48 hours / Trypomastigotes pIC50 72 hours: pIC50 = -log10 IC50 in molar units; for Trypomastigotes pIC50 72 hours: 72 hours incubation; for 72 pIC50 (trypomastigotes, raw data of Fig 1D): 72 hours, plotted values, censored values given without sign; for 48 pIC50 / 72 pIC50: trypomastigote assay; for 48 pIC50: 48 h; for 72 pIC50: 72 h
Procedure, shortened: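 Compounds were tested in dose response or once at a final 5 μM against 5 × 10^4 trypomastigotes per well (DMEM, 2% FBS), collected on days 5–8 from LLC-MK2 infected cultures. ATP luminescence via CellTiter-Glo reports live parasites; DMSO defines 0% and cell-free wells 100% effect.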

| SMILES | ME_24h ([1]; figure 5) | ME_48h ([1]; figure 5) | ME_72h ([1]; figure 5) | MCCE ([1]; RoK curve descriptor) [µM] | AM/CELL NORM ([1]; Time 4) | AM/CELL NORM ([1]; Time 24) | AM/CELL NORM ([1]; Time 48) | AM/CELL NORM ([1]; Time 72) | tlag_Cmax [1] [h] | t50pct_Cmax ([1]; figure 5) | tlag_Cmax ([1]; figure 5) | t50pct_MCC50 ([1]; at MCC50, figure 5) | tlag_MCC50 ([1]; at MCC50, figure 5) | MCCE ([1]; figure 5) | ME_24h (%) [1] [%] | ME_48h (%) [1] [%] | ME_72h (%) [1] [%] | ME 24h (maximum effect at 24 hours, intracellular amastigotes) [1] [%] | Trypomastigotes pIC50 48 hours [2] | Trypomastigotes pIC50 72 hours [2] | also measured |
| --- | --- | --- | --- | --- | --- | --- | --- | --- | --- | --- | --- | --- | --- | --- | --- | --- | --- | --- | --- | --- | --- |
| O=c1[nH]ccc2ccc(-c3ccncc3)cc12 [TCMDC-143631] | -43.2523 | -170.763 | 18.409 | 0.6 | -16.1027 | -43.2523 | -202.655 | 18.409 | 48.0 | 72 | 48 | 72 | 72 | 0.6173 | -43.3 | -170.8 | 18.4 | -43.2523 | < 4.3 | < 4.3 | MCC50 ([1]; figure 5): 50 µM; 72 pIC50 (trypomastigotes, raw data of Fig 1D) [2]: < 4.3; 48 pIC50 ([2]; figure 1A): < 4.3; 72 pIC50 ([2]; figure 1A): < 4.3; 72 pIC50 ([2]; figure 1B): < 4.3 |
| COc1cc(-c2nc(N3CCOCC3)sc2-c2ccnc(NC3CCOCC3)n2)ccc1Cl.O=C(O)C(F)(F)F [TCMDC-143414] | -30.3967 | 4.32 | 10.4319 | 0.34 | -8.885 | -7.51 | 27.1663 | 39.4258 | 14.0 | 72 | 14 | 72 | 72 | 0.3429 | -30.4 | 4.3 | 10.4 | -7.51 | < 4.3 | < 4.3 | MCC50 ([1]; figure 5): 50 µM; 72 pIC50 (trypomastigotes, raw data of Fig 1D) [2]: < 4.3; 48 pIC50 ([2]; figure 1A): < 4.3; 72 pIC50 ([2]; figure 1A): < 4.3; 72 pIC50 ([2]; figure 1B): < 4.3 |
| CN(C)Cc1ccc(-c2ccc(S(=O)(=O)NCC3CCCO3)c(F)c2)cc1.O=C(O)C(F)(F)F (stereo not shown) [TCMDC-143085] | -52.4333 | 20.7837 | 66.9859 | 0.6 | -2.755 | -52.4333 | 10.0788 | 59.3639 | 24.0 | 72 | 24 | 72 | 24 | 0.6173 | -52.4 | 20.8 | 67.0 | -52.4333 | < 4.3 | < 4.3 | MCC50 ([1]; RoK curve descriptor): 1.9 µM; t50%_Cmax [1]: 72.0 h; t50%_MCC50 ([1]; at MCC50): 72.0 h; tlag_MCC50 ([1]; at MCC50): 24.0 h; MCC50 ([1]; figure 5, in µM): 1.852; 72 pIC50 (trypomastigotes, raw data of Fig 1D) [2]: < 4.3; 48 pIC50 ([2]; figure 1A): < 4.2; 72 pIC50 ([2]; figure 1A): < 4.3; 72 pIC50 ([2]; figure 1B): < 4.3 |
| CN(Cc1ccc(C(N)=O)cc1)C(c1ccc(F)cc1)c1cccnc1 (stereo not shown) [TCMDC-143504] | -95.1621 | -135.708 | 0.6882 | 0.6 | 2.577 | -143.385 | -163.001 | -44.3312 | – | 72 | 48 | 72 | 72 | 0.6173 | -95.2 | -135.7 | 0.7 | -95.1621 | < 4.3 | < 4.3 | MCC50 ([1]; figure 5): 50 µM; 72 pIC50 (trypomastigotes, raw data of Fig 1D) [2]: < 4.3; 48 pIC50 ([2]; figure 1A): < 4.3; 72 pIC50 ([2]; figure 1A): < 4.3; 72 pIC50 ([2]; figure 1B): < 4.3 |
| Cc1[nH]c2ccccc2c(=O)c1Cc1c(C)[nH]c2ccccc2c1=O [TCMDC-143490] | 37.5404 | 50.8304 | 51.8782 | 0.01 | 13.7757 | 37.5404 | 50.8304 | 51.8782 | 4.0 | 48 | 4 | 48 | 4 | 0.007621 | 37.5 | 50.8 | 51.9 | 37.5404 | 5.7 | 4.8 | MCC50 ([1]; RoK curve descriptor): 50.0 µM; t50%_Cmax [1]: 48.0 h; t50%_MCC50 ([1]; at MCC50): 48.0 h; tlag_MCC50 ([1]; at MCC50): 4.0 h; MCC50 ([1]; figure 5): 50 µM |
| O=C(CSc1ccc(F)cc1)N[C@@H](Cc1cnc[nH]1)C(=O)NCCc1ccccc1.O=C(O)C(F)(F)F [TCMDC-143317] | -217.337 | -137.825 | 44.5659 | 1.2 | -0.3431 | -195.022 | -169.506 | 59.3586 | 24.0 | 72 | 24 | 72 | 48 | 1.235 | -217.3 | -137.8 | 44.6 | -157.067 | < 4.3 | < 4.3 | MCC50 ([1]; RoK curve descriptor): 50.0 µM; t50%_Cmax [1]: 72.0 h; t50%_MCC50 ([1]; at MCC50): 72.0 h; tlag_MCC50 ([1]; at MCC50): 24.0 h; MCC50 ([1]; figure 5): 50 µM; 72 pIC50 (trypomastigotes, raw data of Fig 1D) [2]: < 4.3; 48 pIC50 ([2]; figure 1A): < 4.3; 72 pIC50 ([2]; figure 1A): < 4.3; 72 pIC50 ([2]; figure 1B): < 4.3 |
